Test results as given in the NIST ThermoML archive (doi:10.1016/j.jct.2015.07.044).

Assay: excess molar enthalpy (molar enthalpy of mixing); xn = mol fraction of the nth substance listed
Conditions: 298.15 K, 100 kPa, Liquid, Isoperibol calorimetry

CCCOCC(C)O (stereo not given) [1-propoxy-2-propanol] + O
Conditions	excess molar enthalpy [kJ/mol]
x1 = 0.00199	-0.05
x1 = 0.00509	-0.11
x1 = 0.00988	-0.19
x1 = 0.01524	-0.29
x1 = 0.02082	-0.32
x1 = 0.02573	-0.37
x1 = 0.0299	-0.46
x1 = 0.03983	-0.5
x1 = 0.05248	-0.52
x1 = 0.09463	-0.59
x1 = 0.09856	-0.59
x1 = 0.1198	-0.61
x1 = 0.1284	-0.61
x1 = 0.1504	-0.62
x1 = 0.1711	-0.62
x1 = 0.2286	-0.62
x1 = 0.297	-0.59
x1 = 0.3791	-0.55
x1 = 0.4088	-0.54
x1 = 0.4372	-0.52
x1 = 0.494	-0.44
x1 = 0.5971	-0.35
x1 = 0.6988	-0.28
x1 = 0.7467	-0.25
x1 = 0.8056	-0.2
x1 = 0.8534	-0.16
x1 = 0.8713	-0.14
x1 = 0.9051	-0.11
x1 = 0.9205	-0.09
x1 = 0.9499	-0.06
